From patent US11479587B2, “Cationic intrinsically disordered antimicrobial peptides” (priority 2016, dated 2022)
Non-standard residues stand in square brackets, D forms with d. Residues, ends and D or L forms follow the SMILES beside them. No end group written: not given here. *: point of attachment. Palmitoyl = CCCCCCCCCCCCCCCC(=O)*; Myristoyl = CCCCCCCCCCCCCC(=O)*; dOrn = NCCC[C@@H](N)C(=O)O

Tests used:
S. aureus ATCC 6538 = experiment: CFU-assay, S. aureus-cidal activity; format: cell-based, Staphylococcus aureus
Method: Thus, within the present invention, the antimicrobial activity is generally measured in nutrient deficient 10 mM sodium phosphate buffer pH 5.5, containing 0.25% glucose, using the CFU-assay according to Steinberg and Lehrer, 1997 (supra), unless otherwise indicated. The CFU-assay allows determination of the minimal bactericidal concentration (MBC, e.g., MBC90 and MBC100; i.e. the concentration of compound required to achieve a specified reduction in bacterial cell number (microbial death or killing)).
Various peptides corresponding to repeat domains of hornerin (HR 1-11: HRNR 2606-2628; HR 1-17: HRNR 2656-2684 and HR 1-18: HRNR 2656-2677) were tested for P. aeruginosa ATCC 10145-cidal activity in 10 mM Na-phosphate buffer pH 5.5, containing 0.25% glucose by counting the numbers of colonies of surviving bacteria at serial, twofold dilutions from 300 μg/ml down to 19 ng/ml of each peptide (CFU-assay; Steinberg and Lehrer, 1997, Methods Mol. Biol. 78, 169-186).
Staphylococcus aureus is a major skin pathogen, which causes skin infections, in particular in atopic dermatitis. The sensitivity of S. aureus ATCC 6538 towards several CIDAMPs was assessed using the CFU-assay as above (see Example 1). HR 1-18, which lacks S. aureus.-bactericidal activity, is converted in a S. aureus-cidal peptide, when all His are replaced by Arg (HR 1-18 4H-4R; see Table 13 and FIG. 9). […] HR 1-18 4H-4R is rich in Ser and Arg and contains a single Leu residue. When this single Leu was replaced by Gly in S. aureus-cidal HR 1-18 4H-4R (forming HR 1-18 4H-4R/L-G), S. aureus-cidal activity was abolished at both pH 7.0 and pH 5.5 (see Table 13 and FIG. 9).

[1] = Cytotoxicity (resazurin) assay
Method: For the cytotoxicity (resazurin) assay, HEK293 cells were counted manually in a Neubauer haemocytometer and plated at a density of 4000 cells/well into each well of the 384-well plates containing the 25×(2 μl) concentrated compounds. The medium used was Dulbecco's modified eagle medium (DMEM) supplemented with 10% foetal bovine serum (FBS). Cells were incubated together with the compounds for 20 h at 37° C., 5% CO2. To measure cytotoxicity, 5 μl (equals 100 μM final) resazurin was added to each well after incubation, and incubated for further 3 h at 37° C. with 5% CO2.
After final incubation fluorescence intensity was measured as F ex 560/10 nm, em 590/10 nm (F560/590) using a Tecan M1000 Pro monochromator plate reader. […] The concentration dependent percentage cytotoxicity was fitted to a dose response function (using Pipeline Pilot) and CC50 values determined.

Hemolysis assay = format: cell-based; settings: for HC50 at 1 h: human, washed erythrocytes from EDTA-blood, pH 7.4
Method: For the hemolysis assays EDTA-blood was centrifuged at 800×g for 10 min, and the plasma and buffy coat were removed. The erythrocytes were washed three times and resuspended in 5% PBS, pH 7.4. The cells were then incubated with end-over-end rotation for 1 h at 37° C. in the presence of different concentrations of peptides (0, 3, 10, 30, 60 μm). 0.1% Triton X-100 (Sigma-Aldrich) served as positive control. The samples were then centrifuged at 800×g for 10 min.
The absorbance of hemoglobin release was measured at 540 nm and is expressed as % of Triton X-100-induced hemolysis. These values of triplicates were plotted with Graph Pad Prism 4 as a dose response curve and the CC50 was determined.

P. aeruginosa ATCC 10145 = experiment: CFU-assay, P. aeruginosa-cidal activity; format: cell-based, Pseudomonas aeruginosa; settings: pH 5.0, 0.25% glucose

Row | Compound | MBC90 (S. aureus ATCC 6538; pH 5.5, 0.25% glucose) [µg/mL] | MBC100 (S. aureus ATCC 6538; pH 5.5, 0.25% glucose) [µg/mL] | CC50 [1] | HC50 (Hemolysis assay) [µg/mL] | further results
1 | GQHGSSSGHSSTHGQHGSTSGQSSSC-Pal* (GQHGSSSGHSSTHGQHGSTSGQSSSC(Pal)-NH2) [S-Pal-HRNR598-623] | 2.35 | >150 | – | – | –
2 | Pal-SHHRHFRSHQCRRQRSNSCDR (Palmitoyl-SHHRHFRSHQCRRQRSNSCDR; cysteine pairing not given here) [Pal-LCE3C55-75] | 0.15 | 0.59 | – | – | –
3 | GRRGSGLGRSSSRGQRGSGSGR [HR 1-18 HR] | – | – | > 32 µg/mL | > 300 | –
4 | LRHGSGLGHSSSHGQHGSGSGR (Modified peptide derived from human hornerin (HR 1-18 G2656L)) | 300 | >300 | – | – | MBC90 (P. aeruginosa ATCC 10145): 4.7 µg/mL; MBC100 (P. aeruginosa ATCC 10145): >300 µg/mL
5 | CCCCCCCCCCCCCCCC(=O)NCC(=O)N[C@H](CCCCN)C(=O)NCC(=O)N[C@H](CCCCN)C(=O)O [D-Pal-GK4, D-Pal-GKDGKD] (HELM PEPTIDE1{[CCCCCCCCCCCCCCCC(=O)[*:2]].G.[dK].G.[dK]}$$$$V2.0) | – | – | > 32 µg/mL | 40 | –
6 | GQHGSSSGHSSTHGQHGSASGQSSSC-Pal* (GQHGSSSGHSSTHGQHGSASGQSSSC(Pal)-NH2) [S-Pal-HRNR2004-2029] | 0.59 | – | – | – | –
7 | Pal-CGQHGATSSGQSSSHGQHGSGSSQSSGYGR (C(Palmitoyl)GQHGATSSGQSSSHGQHGSGSSQSSGYGR) [S-Pal-HRNR1089-1117] | >150 | >150 | – | – | –
8 | Pal-CGQHGATSGQSSSHGQHGSGSSQSSR (C(Palmitoyl)GQHGATSGQSSSHGQHGSGSSQSSR) [S-Pal-HRNR623-648] | 2.35 | >150 | – | – | –
9 | N=C(N)NCCC[C@H](NC(=O)[C@H](Cc1c[nH]cn1)NC(=O)[C@H](CO)NC(=O)[C@H](CCCNC(=N)N)NC(=O)[C@H](CCCNC(=N)N)NC(=O)[C@H](CS)NC(=O)[C@H](CCCNC(=N)N)NC(=O)[C@H](Cc1c[nH]cn1)NC(=O)[C@H](Cc1c[nH]cn1)NC(=O)[C@@H](N)CO)C(=O)N[C@@H](CS)C(=O)O [LCE3A50-60] (H-SHHRCRRSHRC-OH) | – | – | > 32 µg/mL | – | –
10 | GRRGSGGGRSSSRGGRGSGSGR (Modified peptide derived from human hornerin (HR 1-18 4H-4R/L-G)) | >300 | >300 | – | – | MBC90 (P. aeruginosa ATCC 10145): 0.038 µg/mL; MBC100 (P. aeruginosa ATCC 10145): 0.15 µg/mL; S. aureus-cidal activity (in words) (S. aureus ATCC 6538; pH 7.0 and pH 5.5): abolished
11 | GRHGSGSGQSSGFGHHESSSWQSSGC-Pal* (GRHGSGSGQSSGFGHHESSSWQSSGC(Palmitoyl)-NH2) [S-Pal-HRNR1389-1414] | 1.18 | 18.8 | – | – | –
12 | NHHRRHHRCR [LCE3D55-64] | – | – | > 32 µg/mL | – | –
13 | CCCCCCCCCCCCCCCC(=O)NCC(=O)N[C@@H](CCCN)C(=O)NCC(=O)N[C@@H](CCCN)C(=O)O [Pal-GOrn4, Pal-GOGO] (HELM PEPTIDE1{[CCCCCCCCCCCCCCCC(=O)[*:2]].G.[Orn].G.[Orn]}$$$$V2.0) | – | – | > 32 µg/mL | 80 | –
14 | SHHRHFRSHQCRR [LCE3C55-67] | – | – | > 32 µg/mL | > 300 | –
15 | CCCCCCCCCCCCCCCC(=O)NCC(=O)N[C@H](CCCN)C(=O)NCC(=O)N[C@H](CCCN)C(=O)O [D-Pal-GOrn4, D-Pal-GODGOD] (Palmitoyl-G[dOrn]G[dOrn]-OH) | – | – | > 32 µg/mL | 55 | –
16 | SHHRPRLFHRRRH [LCE2B74-86] | – | – | > 32 µg/mL | > 300 | –
17 | SRRSSSLSRSSSRSSRSSSSSR (Modified peptide derived from human hornerin (HR 1-18 4H-4R/9G-9S)) | 150 | >300 | – | – | MBC90 (P. aeruginosa ATCC 10145): 0.15 µg/mL; MBC100 (P. aeruginosa ATCC 10145): 1.18 µg/mL; MBC90 (S. aureus ATCC 6538; pH 7.2, 0.25% glucose): 75 µg/mL; MBC100 (S. aureus ATCC 6538; pH 7.2, 0.25% glucose): >300 µg/mL
18 | SHHRRRRSHCH [LCE1B78-88] | – | – | > 32 µg/mL | – | –
19 | GRRGGRGGRGRGR [GR13] | – | – | > 23.6 µM | – | HC50 at 1 h (Hemolysis assay): > 220 µM
20 | N=C(N)NCCC[C@H](NC(=O)[C@H](CC(=O)O)NC(=O)[C@H](CS)NC(=O)[C@H](CO)NC(=O)[C@H](CC(N)=O)NC(=O)[C@H](CO)NC(=O)[C@H](CCCNC(=N)N)NC(=O)[C@H](CCC(N)=O)NC(=O)[C@H](CCCNC(=N)N)NC(=O)[C@H](CCCNC(=N)N)NC(=O)[C@H](CS)NC(=O)[C@H](CCC(N)=O)NC(=O)[C@H](Cc1c[nH]cn1)NC(=O)[C@H](CO)NC(=O)[C@H](CCCNC(=N)N)NC(=O)[C@H](Cc1ccccc1)NC(=O)[C@H](Cc1c[nH]cn1)NC(=O)[C@H](CCCNC(=N)N)NC(=O)[C@H](Cc1c[nH]cn1)NC(=O)[C@H](Cc1c[nH]cn1)NC(=O)[C@@H](N)CO)C(=O)O [LCE3C55-75] (H-SHHRHFRSHQCRRQRSNSCDR-OH) | – | – | > 32 µg/mL | > 300 | –
21 | SGHSSVFGQHESGSGHSSAYSQHGSGSGHFC-Pal* (SGHSSVFGQHESGSGHSSAYSQHGSGSGHFC(Palmitoyl)-NH2) [S-Pal-HRNR1748-1778] | 0.3 | 9.38 | – | – | MBC100 (S. aureus ATCC 6538; pH 5.5): 2.8 µM; MBC90 (S. aureus ATCC 6538; pH 5.5, 0.25% glucose (text)): 0.09 µM
22 | CCCCCCCCCCCCCC(=O)NCC(=O)N[C@@H](CCCNC(=N)N)C(=O)N[C@@H](Cc1c[nH]cn1)C(=O)NCC(=O)N[C@@H](CO)C(=O)NCC(=O)N[C@@H](CC(C)C)C(=O)NCC(=O)N[C@@H](Cc1c[nH]cn1)C(=O)N[C@@H](CO)C(=O)N[C@@H](CO)C(=O)N[C@@H](CO)C(=O)N[C@@H](Cc1c[nH]cn1)C(=O)NCC(=O)N[C@@H](CCC(N)=O)C(=O)N[C@@H](Cc1c[nH]cn1)C(=O)NCC(=O)N[C@@H](CO)C(=O)NCC(=O)N[C@@H](CO)C(=O)NCC(=O)N[C@@H](CCCNC(=N)N)C(=O)O [Myr-HR 1-18] (HELM PEPTIDE1{[CCCCCCCCCCCCCC(=O)[*:2]].G.R.H.G.S.G.L.G.H.S.S.S.H.G.Q.H.G.S.G.S.G.R}$$$$V2.0) | – | – | 32 µg/mL | > 300 | –
23 | CCCCCCCCCCCCCCCC(=O)NCC(=O)N[C@H](CCCNC(=N)N)C(=O)NCC(=O)N[C@H](CCCNC(=N)N)C(=O)O [D-Pal-GR4, Pal-GRDGRD] (HELM PEPTIDE1{[CCCCCCCCCCCCCCCC(=O)[*:2]].G.[dR].G.[dR]}$$$$V2.0) | – | – | > 32 µg/mL | 300 | –
24 | SHHRHFRSHQCR [LCE3C55-66] | – | – | > 32 µg/mL | – | –
25 | SHHRPRLFHRHRH [LCE2A70-82] | – | – | > 32 µg/mL | – | –
26 | CCCCCCCCCCCCCCCC(=O)NCC(=O)N[C@H](CCCNC(=N)N)C(=O)N[C@H](CCCNC(=N)N)C(=O)NCC(=O)NCC(=O)N[C@H](CCCNC(=N)N)C(=O)NCC(=O)NCC(=O)N[C@H](CCCNC(=N)N)C(=O)O [D-Pal-GR9] (HELM PEPTIDE1{[CCCCCCCCCCCCCCCC(=O)[*:2]].G.[dR].[dR].G.G.[dR].G.G.[dR]}$$$$V2.0) | – | – | > 32 µg/mL | > 100 | –
27 | HAHSGHGQSTQRGSRTAGR [FLG-22082-2100] | – | – | > 12.9 µM | – | HC50 at 1 h (Hemolysis assay): > 121 µM
28 | Myr-GRRGSGLGRSSSRGQRGSGSGR (Myristoyl-GRRGSGLGRSSSRGQRGSGSGR) [Myr-HR 1-18 HR] | – | – | – | – | MBC90 (S. aureus ATCC 6538; pH 7.3, 1% TSB): 18.75 µg/mL; MBC100 (S. aureus ATCC 6538; pH 7.3, 1% TSB): 75 µg/mL
29 | CCCCCCCCCCCCCCCC(=O)NCC(=O)N[C@@H](CCCCN)C(=O)NCC(=O)N[C@@H](CCCCN)C(=O)O [Pal-GK4, Pal-GKGK] (HELM PEPTIDE1{[CCCCCCCCCCCCCCCC(=O)[*:2]].G.K.G.K}$$$$V2.0) | – | – | > 32 µg/mL | 50 | –
30 | CCCCCCCCCCCCCCCC(=O)SC[C@H](NC(=O)[C@H](CCCNC(=N)N)NC(=O)CNC(=O)[C@H](CCCNC(=N)N)NC(=O)CNC(=O)[C@H](CCCNC(=N)N)NC(=O)CNC(=O)CNC(=O)[C@H](CCCNC(=N)N)NC(=O)CNC(=O)CNC(=O)[C@H](CCCNC(=N)N)NC(=O)[C@H](CCCNC(=N)N)NC(=O)CN)C(N)=O [C-Pal-GR13] (H-GRRGGRGGRGRGRC(Palmitoyl)-NH2) | – | – | > 32 µg/mL | – | –
